# In article PMC7912516, “New Antimicrobials Based on the Adarotene Scaffold with Activity against Multi-Drug Resistant Staphylococcus aureus and Vancomycin-Resistant Enterococcus” (Antibiotics, 2021):
# “And” between values parts separate entries of the source, which are not always exact repeats. Equal entries are not always repeated.
# System: tumor cell line H-460 NCI
# Experiment: not given
# Design: method as in PMID 32920362
# Conditions: ± SD, ref [17], read-out: IC50 (concentration required for 50% inhibition of cell growth); cited from earlier work
row,SMILES,IC50 [µM]
1,O=C(O)/C=C/c1ccc(-c2ccc(O)c(C34CC5CC(CC(C5)C3)C4)c2)c(C=NOCC(=O)O)c1 [Compound 18],> 10
2,N=C(N)NCc1cc(/C=C/C(=O)O)ccc1-c1ccc(O)c(C23CC4CC(CC(C4)C2)C3)c1 [Compound 19],> 10
3,O=Cc1cc(/C=C/C(=O)O)ccc1-c1ccc(O)c(C23CC4CC(CC(C4)C2)C3)c1 [Compound 20],3.2 ± 0.2

# System: tumor cell line IGROV-1
# Experiment: not given
# Conditions: ± SD, ref [13], read-out: IC50 (concentration required for 50% inhibition of cell growth); cited from earlier work
row,SMILES,IC50 [µM]
1,CC(C)(C)c1cc(-c2ccc(/C=C/C(=O)O)cc2)ccc1O [Compound 1],30
2,N#C/C=C/c1ccc(-c2ccc(O)c(C34CC5CC(CC(C5)C3)C4)c2)cc1 [Compound 4],8.3 ± 1.4

# System: S. aureus strain 1 (MDR clinical isolate, MRSA, mecA positive)
# Experiment: MIC/MBC by broth micro-dilution (CLSI)
# Assay type: cell-based, Staphylococcus aureus
# Conditions: S. aureus Strain 1; modal value of three replicates
# Protocol: (§1) The compounds were initially tested with a methicillin-resistant S. aureus and an E. faecalis clinical isolates (details in the experimental section), two MDR strains according to definition by Magiorakos et al.. The activity of studied compounds was assessed by broth micro-dilution method. Minimal Inhibitory Concentration (MIC), and Minimal Bactericidal Concentration (MBC) were determined and possible bacteriostatic or bactericidal activity was also investigated.
# (§2) MICs and MBCs were determined according to CLSI (Clinical and Laboratory Standards Institute) guidelines, in triplicate. Results are shown as modal values of the three replicates. According to MIC and MBC data, the killing rate was calculated as the ratio between MBC and MIC on which basis it is possible to define the compounds tested as bactericides (killing rate = 1–4), or bacteriostatic (killing rate > 4).
# (§3) Preparation of the solution containing molecules: for each molecule to be tested, solutions were made as DMSO stock, with a concentration of 2.560 mg/mL. Scalar dilutions were than prepared directly on plates by using Mueller Hinton Broth (MHB) as a growth medium (range 0.5–256 µg/mL).
# (§4) Bacterial suspension preparation: cryostrains preserved at −80 °C were recovered by incubation in growth medium (Brain Heart Infusion Broth, BHI) for 24–48 h at 35 ± 2 °C followed by passages in agar growth medium (Columbia Blood Agar). Colonies with less than 30 h were suspended in MHB with the purpose to prepare a bacterial suspension with a turbidity of 0.5 MF, containing approximately 1.5 × 10^8 cfu/mL. This suspension was than diluted in MHB until reaching a final concentration of 5 × 10^4 CFU/well. Simultaneously, check in broth-microdilution only with solvent (in order to exclude that the effect of growth inhibition might be due to the drug solution solvent), positive growth control in absence of DMSO and drug, and negative purity control only with injection broth were performed.
# S. aureus strain 1 (collection, MDR): mecA positive; MRSA, β-lactamase positive, resistant to ciprofloxacin, gentamicin and erythromycin.
row,MIC,SMILES
1,>= 32 µg/mL and 128 [128] µg/mL,N#C/C=C/c1ccc(-c2ccc(O)c(C34CC5CC(CC(C5)C3)C4)c2)cc1 [Compound 4]
2,32 to 128 µg/mL and 128 µg/mL,O=C(O)/C=C/c1ccc(-c2ccc(O)c(C34CC5CC(CC(C5)C3)C4)c2)c(C=NOCC(=O)O)c1 [Compound 18]
3,32 µg/mL,N=C(N)NCc1cc(/C=C/C(=O)O)ccc1-c1ccc(O)c(C23CC4CC(CC(C4)C2)C3)c1 [Compound 19]

# Same assay, conditions: Staphylococcus aureus, MRSA, S. aureus Strain 1; modal value of three replicates; read-out: MIC
row,MIC [µg/mL],SMILES
1,64,CC(C)(C)c1cc(-c2ccc(/C=C/C(=O)O)cc2)ccc1O [Compound 1]
2,32 to 128,N=C(N)NCc1cc(/C=C/C(=O)O)ccc1-c1ccc(O)c(C23CC4CC(CC(C4)C2)C3)c1 [Compound 19]
3,2,O=Cc1cc(/C=C/C(=O)O)ccc1-c1ccc(O)c(C23CC4CC(CC(C4)C2)C3)c1 [Compound 20]

# Same assay, conditions: Staphylococcus aureus, MRSA, S. aureus Strain 1; modal value; read-out: MIC
row,MIC [µM],SMILES
1,216,CC(C)(C)c1cc(-c2ccc(/C=C/C(=O)O)cc2)ccc1O [Compound 1]
2,361,N#C/C=C/c1ccc(-c2ccc(O)c(C34CC5CC(CC(C5)C3)C4)c2)cc1 [Compound 4]
3,269,O=C(O)/C=C/c1ccc(-c2ccc(O)c(C34CC5CC(CC(C5)C3)C4)c2)c(C=NOCC(=O)O)c1 [Compound 18]
4,72,N=C(N)NCc1cc(/C=C/C(=O)O)ccc1-c1ccc(O)c(C23CC4CC(CC(C4)C2)C3)c1 [Compound 19]
5,5,O=Cc1cc(/C=C/C(=O)O)ccc1-c1ccc(O)c(C23CC4CC(CC(C4)C2)C3)c1 [Compound 20]

# Same assay, conditions: Staphylococcus aureus, MRSA; S. aureus Strain 1; in square brackets; modal value
row,SMILES,MBC
1,N#C/C=C/c1ccc(-c2ccc(O)c(C34CC5CC(CC(C5)C3)C4)c2)cc1 [Compound 4],128 µg/mL and 361 µM
2,N=C(N)NCc1cc(/C=C/C(=O)O)ccc1-c1ccc(O)c(C23CC4CC(CC(C4)C2)C3)c1 [Compound 19],64 µg/mL and 144 µM
3,O=Cc1cc(/C=C/C(=O)O)ccc1-c1ccc(O)c(C23CC4CC(CC(C4)C2)C3)c1 [Compound 20],32 µg/mL and 80 µM

# System: E. faecalis strain 1 (MDR clinical isolate)
# Experiment: MIC/MBC by broth micro-dilution (CLSI)
# Assay type: cell-based, Enterococcus faecalis
# Conditions: Enterococcus faecalis, in square brackets, modal value
# Protocol: as §1, §2, §3, §4
# E. faecalis strain 1 (collection, MDR) vanA/B negative; aminoglycosides high-level resistant to aminoglycosides (gentamicin and streptomycin) and ampicillin.
row,SMILES,MBC
1,N#C/C=C/c1ccc(-c2ccc(O)c(C34CC5CC(CC(C5)C3)C4)c2)cc1 [Compound 4],128 µg/mL and 360 µM
2,N=C(N)NCc1cc(/C=C/C(=O)O)ccc1-c1ccc(O)c(C23CC4CC(CC(C4)C2)C3)c1 [Compound 19],64 µg/mL and 144 µM

# Same assay, conditions: Enterococcus faecalis, modal value of three replicates, read-out: MIC
row,MIC [µg/mL],SMILES
1,> 256,CC(C)(C)c1cc(-c2ccc(/C=C/C(=O)O)cc2)ccc1O [Compound 1]
2,≥ 32,N#C/C=C/c1ccc(-c2ccc(O)c(C34CC5CC(CC(C5)C3)C4)c2)cc1 [Compound 4]
3,32 to 128,N=C(N)NCc1cc(/C=C/C(=O)O)ccc1-c1ccc(O)c(C23CC4CC(CC(C4)C2)C3)c1 [Compound 19]
4,8,O=Cc1cc(/C=C/C(=O)O)ccc1-c1ccc(O)c(C23CC4CC(CC(C4)C2)C3)c1 [Compound 20]

# Same assay, conditions: Enterococcus faecalis, modal value, read-out: MIC
row,MIC [µM],SMILES
1,> 864,CC(C)(C)c1cc(-c2ccc(/C=C/C(=O)O)cc2)ccc1O [Compound 1]
2,90,N#C/C=C/c1ccc(-c2ccc(O)c(C34CC5CC(CC(C5)C3)C4)c2)cc1 [Compound 4]
3,269,O=C(O)/C=C/c1ccc(-c2ccc(O)c(C34CC5CC(CC(C5)C3)C4)c2)c(C=NOCC(=O)O)c1 [Compound 18]
4,72,N=C(N)NCc1cc(/C=C/C(=O)O)ccc1-c1ccc(O)c(C23CC4CC(CC(C4)C2)C3)c1 [Compound 19]
5,20,O=Cc1cc(/C=C/C(=O)O)ccc1-c1ccc(O)c(C23CC4CC(CC(C4)C2)C3)c1 [Compound 20]

# Same assay, conditions: modal value of three replicates
row,MIC,SMILES
1,32 µg/mL,N#C/C=C/c1ccc(-c2ccc(O)c(C34CC5CC(CC(C5)C3)C4)c2)cc1 [Compound 4]
2,32 to 128 µg/mL and 128 µg/mL,O=C(O)/C=C/c1ccc(-c2ccc(O)c(C34CC5CC(CC(C5)C3)C4)c2)c(C=NOCC(=O)O)c1 [Compound 18]
3,32 µg/mL,N=C(N)NCc1cc(/C=C/C(=O)O)ccc1-c1ccc(O)c(C23CC4CC(CC(C4)C2)C3)c1 [Compound 19]
